According to patent US8853258B2, “C-linked hydroxamic acid derivatives useful as antibacterial agents” (Pfizer Inc., priority 2009, dated 2014):
Values after ≈ are worked out from the molar mass of the structure shown.

Key:
Type in all cases: cell-based
[1] = system: Acinetobacter baumanii/haemolyticus: Multidrug-resistant clinical isolate (AB-3167); test: MIC determination (CLSI), AB-3167; settings: for AB-3167 MIC: Acinetobacter baumanii/haemolyticus multidrug-resistant clinical isolate AB-3167; for MIC: Acinetobacter baumannii, Table 1, read-out: AB-3167 (MIC)
Procedure: (§1) The in vitro antibacterial activity of compounds described in the Examples was evaluated by minimum inhibitory concentration (MIC) testing according to Clinical and Laboratory Standards Institute (CLSI, formerly NCCLS) guidelines. See: Clinical and Laboratory Standards Institute. Methods for Dilution Antimicrobial Susceptibility Tests for Bacteria that Grow Aerobically; Approved Standard-Seventh Edition. CLSI document M7-A7 [ISBN 1-56238-587-9]. Clinical and Laboratory Standards Institute, 940 West Valley Road, Suite 1400, Wayne, Pa. 19087-1898 USA, 2006; also Clinical and Laboratory Standards Institute. Performance Standards for Antimicrobial Susceptibility Testing; Eighteenth Informational Supplement. CLSI document M100-S18 [ISBN1-56238-653-0]. Clinical and Laboratory Standards Institute.
(§2) The following bacterial strains were used in these MIC determinations:
2) Acinetobacter baumanii/haemolyticus: Multidrug-resistant clinical isolate labeled as AB-3167 in Tables 1, 2 and 3;

[2] = system: Escherichia coli EC-1: VOGEL, mouse virulent; test: MIC determination (CLSI), EC-1; settings: for EC-1 MIC: Escherichia coli EC-1 VOGEL, mouse virulent; for MIC: Escherichia coli, read-out: EC-1: (MIC)
Procedure: as §1, §2
3) Escherichia coli EC-1: VOGEL, mouse virulent labeled as EC-1 in Tables 1, 2 and 3;

[3] = system: Klebsiella pneumoniae: Ciprofloxacin-resistant isolate, ESBL, clinical isolate (KP-3700); test: MIC determination (CLSI), KP-3700
Procedure: as §1, §2
4) Klebsiella pneumoniae: Ciprofloxacin-resistant isolate, expresses extended-spectrum beta-lactamases (ESBL), clinical isolate, labeled as KP-3700 in Tables 1, 2, and 3.

[4] = system: Pseudomonas aeruginosa UI-18: Wild-type (PA-7); test: MIC determination (CLSI), PA-7; settings: for PA-7 MIC: Pseudomonas aeruginosa UI-18 wild-type PA-7; for MIC: Pseudomonas aeruginosa, Table 1, read-out: PA-7 (MIC)
Procedure: as §1, §2
1) Pseudomonas aeruginosa UI-18: Wild-type, labeled as PA-7 in Tables 1, 2 and 3;

Structure (SMILES) | AB-3167 MIC [1] | EC-1 MIC [2] | KP-3700 MIC [3] | PA-7 MIC [4] | MIC [1] | MIC [2] | MIC [4]
Cc1cccc(-c2ccc(CCC(C)(C(=O)NO)S(C)(=O)=O)cc2)c1 (racemic) [Example 87] | 8 mg/L | 2 mg/L | 4 mg/L | 1 mg/L |  |  | 
COc1cccc(-c2ccc(CCC(C)(C(=O)NO)S(C)(=O)=O)cc2)c1F (racemic) [Example 89] | 16 mg/L | 0.5 mg/L | 1 mg/L | 0.5 mg/L |  |  | 
CC(CCc1ccc(-c2cc(Cl)ccc2F)cc1)(C(=O)NO)S(C)(=O)=O (racemic) [Example 90] | 8 mg/L | 8 mg/L | 8 mg/L | 8 mg/L |  |  | 
CC(CCc1ccc(-c2ccccc2)nc1)(C(=O)NO)S(C)(=O)=O (centres unmarked) [Example 3, N-Hydroxy-2-methyl-2-(methylsulfonyl)-4-(6-phenylpyridin-3-yl)butanamide] |  |  | ≧64 mg/L |  | ≥ 64 µg/mL | 16 µg/mL (≈ 45.9 µM) | 16 µg/mL (≈ 45.9 µM)
CC(CCc1ccc(-c2ccccc2)cn1)(C(=O)NO)S(C)(=O)=O (centres unmarked) [Example 4, N-Hydroxy-2-methyl-2-(methylsulfonyl)-4-(5-phenylpyridin-2-yl)butanamide] |  |  | ≧64 mg/L |  | ≥ 64 µg/mL | 16 µg/mL (≈ 45.9 µM) | 8 µg/mL (≈ 23 µM)
C[C@@](CCc1ccc(-c2ccccc2)cc1)(C(=O)NO)S(C)(=O)=O [Example 7, (2R)-4-Biphenyl-4-yl-N-hydroxy-2-methyl-2-(methylsulfonyl)butanamide] |  |  | 2 mg/L |  | 16 µg/mL (≈ 46.1 µM) | 0.5 µg/mL (≈ 1.44 µM) | 0.5 µg/mL (≈ 1.44 µM)
CC(CCc1ccc(-c2ccccc2O)cc1)(C(=O)NO)S(C)(=O)=O (centres unmarked) [Example 8, N-Hydroxy-4-(2′-hydroxybiphenyl-4-yl)-2-methyl-2-(methylsulfonyl)butanamide] |  |  | ≧64 mg/L |  | ≥ 64 µg/mL | ≥ 64 µg/mL | 8 µg/mL (≈ 22 µM)
CC(CCc1ccc(Oc2ccccc2)cc1)(C(=O)NO)S(C)(=O)=O (centres unmarked) [Example 10, N-Hydroxy-2-methyl-2-(methylsulfonyl)-4-(4-phenoxyphenyl)butanamide] |  |  | 32 mg/L |  | 32 µg/mL (≈ 88 µM) | 16 µg/mL (≈ 44 µM) | 8 µg/mL (≈ 22 µM)
CC(CCc1ccc(-n2cccn2)cc1)(C(=O)NO)S(C)(=O)=O (centres unmarked) [Example 11, N-Hydroxy-2-methyl-2-(methylsulfonyl)-4-[4-(1H-pyrazol-1-yl)phenyl]butanamide] |  |  | ≧64 mg/L |  | ≥ 64 µg/mL | ≥ 64 µg/mL | 16 µg/mL (≈ 47.4 µM)
COc1cc(CCC(C)(C(=O)NO)S(C)(=O)=O)ccc1-c1ccc(F)cc1 (centres unmarked) [Example 20, 4-(4′-Fluoro-2-methoxybiphenyl-4-yl)-N-hydroxy-2-methyl-2-(methylsulfonyl)butanamide] |  |  | 8 mg/L |  | ≥ 64 µg/mL | 1 µg/mL (≈ 2.53 µM) | 16 µg/mL (≈ 40.5 µM)
CS(=O)(=O)C(CCc1ccc(-c2ccc(F)cc2)cc1)C(=O)NO (centres unmarked) [Example 24, 4-(4′-Fluorobiphenyl-4-yl)-N-hydroxy-2-(methylsulfonyl)butanamide] |  |  | 32 mg/L |  | 32 µg/mL (≈ 91.1 µM) | 32 µg/mL (≈ 91.1 µM) | 1 µg/mL (≈ 2.85 µM)
CC(CCc1ccc(-c2ccc(F)cc2)cc1)(C(=O)NO)S(C)(=O)=O (centres unmarked) [Example 27] | 8 mg/L | 2 mg/L | 4 mg/L | 1 mg/L |  |  | 
CS(=O)(=O)C(CCc1ccc(-c2ccc(C#N)cc2)cc1)C(=O)NO (centres unmarked) [Example 28] | ≧64 mg/L | 32 mg/L | ≧64 mg/L | 2 mg/L |  |  | 
CC(CCc1ccc(-c2ccc(C#N)cc2)cc1)(C(=O)NO)S(C)(=O)=O (centres unmarked) [Example 29] | ≧64 mg/L | 1 mg/L | 2 mg/L | 1 mg/L |  |  | 
CC(CCc1ccc(Br)cc1)(C(=O)NO)S(C)(=O)=O (centres unmarked) [Example 32] | ≧64 mg/L | 32 mg/L | ≧64 mg/L | 32 mg/L |  |  | 
COc1ccc(-c2ccc(CCC(C)(C(=O)NO)S(C)(=O)=O)cc2)cc1OC (centres unmarked) [Example 33] | ≧64 mg/L | 16 mg/L | 32 mg/L | 16 mg/L |  |  | 
CN(C)c1ccc(-c2ccc(CCC(C)(C(=O)NO)S(C)(=O)=O)cc2)cn1 (centres unmarked) [Example 35] | ≧64 mg/L | 4 mg/L | 16 mg/L | 32 mg/L |  |  | 
CS(=O)(=O)C(CCc1ccc(-c2ccccc2)cc1)C(=O)NO (centres unmarked) [Example 36] | 32 mg/L | 16 mg/L | 16 mg/L | 2 mg/L |  |  | 
Cc1cc(-c2ccc(CCC(C)(C(=O)NO)S(C)(=O)=O)cc2)cnc1N(C)C (centres unmarked) [Example 37] | ≧64 mg/L | 16 mg/L | ≧64 mg/L | 16 mg/L |  |  | 
CC(CCc1ccc(-c2cnc(N3CCOCC3)nc2)cc1)(C(=O)NO)S(C)(=O)=O (centres unmarked) [Example 39] | ≧64 mg/L | 4 mg/L | 32 mg/L | ≧64 mg/L |  |  | 
CSc1ccc(-c2ccc(CCC(C)(C(=O)NO)S(C)(=O)=O)cc2)cc1 (centres unmarked) [Example 40] | 16 mg/L | 0.5 mg/L | 2 mg/L | 2 mg/L |  |  | 
COc1cccc(F)c1-c1ccc(CCC(C)(C(=O)NO)S(C)(=O)=O)cc1 (centres unmarked) [Example 41] | ≧64 mg/L | 16 mg/L | ≧64 mg/L | 8 mg/L |  |  | 
CC(C)c1cccc(-c2ccc(CCC(C)(C(=O)NO)S(C)(=O)=O)cc2)c1 (centres unmarked) [Example 43] | 4 mg/L | 4 mg/L | 16 mg/L | 8 mg/L |  |  | 
CC(CCc1ccc(-c2ccc(C#N)c(F)c2)cc1)(C(=O)NO)S(C)(=O)=O (centres unmarked) [Example 45] | ≧64 mg/L | 0.5 mg/L | 4 mg/L | 1 mg/L |  |  | 
Cc1csc(-c2ccc(CCC(C)(C(=O)NO)S(C)(=O)=O)cc2)c1 (centres unmarked) [Example 46] | ≧64 mg/L | 2 mg/L | 4 mg/L | 2 mg/L |  |  | 
COc1ccc(OC)c(-c2ccc(CCC(C)(C(=O)NO)S(C)(=O)=O)cc2)c1 (centres unmarked) [Example 48] | 16 mg/L | 16 mg/L | ≧64 mg/L | ≧64 mg/L |  |  | 
Cn1ccnc1-c1ccc(-c2ccc(CCC(C)(C(=O)NO)S(C)(=O)=O)cc2)cc1 (centres unmarked) [Example 92] | ≧64 mg/L | 16 mg/L | 32 mg/L | 32 mg/L |  |  | 
CC(CCc1ccc(-c2ccc(C#N)nc2)cc1)(C(=O)NO)S(C)(=O)=O (centres unmarked) [Example 93] | ≧64 mg/L | 16 mg/L | 32 mg/L | 4 mg/L |  |  | 
CSc1ccccc1-c1ccc(CCC(C)(C(=O)NO)S(C)(=O)=O)cc1 (centres unmarked) [Example 94] | ≧64 mg/L | 32 mg/L | ≧64 mg/L | 32 mg/L |  |  | 
